This is an account of results in patent US9126989B2, “Compound and methods for treating long QT syndrome” (Gilead Sciences, Inc., priority 2013, dated 2015).

Data set [1] can be described thus: PK after single oral dose in patients with LQT-3. Format: in vivo, human. An excerpt: This is similar to the PK profile of Compound 1 in healthy volunteers.
The test system of a further data set is patients with LQT3. Put plainly: Phase 1 clinical study in patients with LQT3 (QTc, ECHO, tolerability). The note with it: for Tolerability: Phase 1; for Change in QTc from baseline: all dose levels (10-60 mg single, multiple dose cohort). It counts as in vivo, human. The method, then: In an ongoing Phase 1, effect of oral Compound (I) on the QTc interval in subjects with LQT3 was evaluated. Subjects with LQT3 identified from the LQTS registry with proven mutations in the cardiac sodium channel and a QTc >460 msec will be enrolled. Four sequential single dose cohorts and 1 multiple dose cohort were enrolled and received a single dose of Compound (I) (Cohort 1: 10 mg; Cohort 2: 20 mg; Cohort 3: 30 mg; Cohort-4: 60 mg) or multiple doses of Compound (I) (Cohort 5: Day 1—20 mg, Day 2—40 mg, Days 3-7—6 mg once daily).
Ten subjects were enrolled. Among these 10 subjects, 3 subjects received single oral dose of Compound (I), 5 subjects received Compound (I) at 2 different dose periods, and 2 subjects received Compound (I) at 3 different dose periods. […] Changes in QTc interval from baseline (Day −1 for Cohorts 1-4; average of Day −2 and Day −1 for Cohort 5) were analyzed in 2 different ways: 1) changes in average daytime QTc during 12 hours postdose (QTc interval AUC0-12/12) and 2) maximal time-matched QTc changes within 12 hours postdose. […] In the multiple dose cohort (shown in FIG. 5-6), the effect of Compound (I) on QTc shortening was dose-dependent with a larger QTc shortening after 40 mg on Day 2 compared to 20 mg on Day 1. More importantly, the QTc shortening was sustained during the maintenance doses of 6 mg from Days 3-7.
In addition, effect of Compound (I) on cardiac function was assessed by ECHO. For the single dose cohorts, echocardiography (ECHO) was performed at baseline (Day −1) and at 3 and 6 hours after the single oral dose of Compound (I) on Day 1. For the multiple dose cohort (Cohort 5), ECHO was performed at baseline (Day −1), at 3 and 6 hours after the single oral dose of Compound (I) on Day 1, and at 3 hours after dose on Day 4 and Day 7.

The next data set addresses P-glycoproteins (Homo sapiens, UniProt P08183). Description: P-glycoprotein inhibition. Format: in vitro ADME.
Data set [2] addresses T1, cardiac late sodium current (INa) (Homo sapiens, UniProt Q14524). Put plainly: Inhibition of the cardiac late sodium current. It counts as biochemical.
The test system of data set [3] is rabbit isolated wedge preparation. Description: Rabbit isolated left ventricular wedge preparation, E-4031 model of LQT-2. Particulars: 60 nM E-4031, 300 nM Compound 1, cycle lengths 500, 1000 and 2000 msec. On the procedure: E-4031 is an inhibitor of IKr.
Rabbit isolated left ventricular wedge was prepared as previously described (Yan et al, 1996, 2009). Briefly, the chest was opened via a left thoracotomy, and the heart was excised, placed in a cardioplegic solution consisting of cold (4° C.) Tyrode's solution containing 20 mmol/L […], and transported to a dissection tray. Transmural wedges with dimensions of approximately 1×1×0.8 or 0.8×0.8×0.4 cm^3 were dissected from the left ventricle. The tissue was cannulated via a small (diameter, ≈100 μm) branch of the left anterior descending artery or another coronary artery and perfused with cardioplegic solution. The total period of time from excision of the heart to cannulation and perfusion of the artery was less than 4 minutes. Unperfused tissue was carefully removed with a razor blade. The preparation was then placed in a tissue bath and arterially perfused with Tyrode's solution of the following composition (mmol/L): NaCl 129, KCl 4, NaH2PO4 0.9, NaHCO3 20, Ca 1.8, MgSO4 0.5, glucose 5.5, and insulin 1 U/L, buffered with 95% O2/5% CO2 (36±1° C.). The perfusate was delivered to the artery by a roller pump (Cole Panner Instrument Co). Perfusion pressure was monitored with a pressure transducer (World Precision Instruments, Inc) and maintained between 40 and 50 mm Hg by adjustment of the perfusion flow rate. The preparations remained immersed in the arterial perfusate, which was allowed to rise to a level 2 to 3 mm above the tissue surface (36±1° C.).

Data set [4] has as its system model of long QT syndrome-3 (LQT3). Description: Model of LQT-3: action potential duration and beat-to-beat variability.
The subject of data set [5] is cytochrome P450 (CYP) enzymes. Description: Cytochrome P450 inhibition. Format: in vitro ADME.
A further data set deals with rabbit isolated heart. Description: Rabbit isolated heart, E-4031 model of LQT-2 and drug-induced QT prolongation. An excerpt:
E-4031 is an inhibitor of IKr. […] Hearts were paced at a rate of 1 Hz.
The use of rabbits (New Zealand White adult females, 2-4 kg; Western Oregon Rabbit Company, Philomath, Oreg.) in this investigation conformed to the “Guide for the Care and Use of Laboratory Animals” (NIH publication No. 85-23, revised 1996) and was approved by the Institutional Animal Care and Use Committees of Gilead Sciences. Hearts were isolated and perfused by the method of Langendorff as previously described (Wu et al., 2009). Briefly, the atrioventricular nodal area was thermally ablated to produce heart block, and hearts were paced at a rate of 1 Hz. Monophasic action potentials (MAPs) from the left ventricular epicardium and pseudo 12-lead electrocardiograms (ECGs) were recorded. […] The duration of the MAP at the level at which repolarization is 90% complete (MAPD90) was measured.

In data set [6] the target is T1, cardiac late sodium current (INa). Particulars: see US 2013/0012492; cited from earlier work.
Where [7] appears, read: after single dose administration.
The mark [8] stands for this setting: LQT3 patients, listed as Compound (I).

Entries after “also recorded” stand apart in the source; their conditions may differ.

T1 sequence (Q14524 whole entry): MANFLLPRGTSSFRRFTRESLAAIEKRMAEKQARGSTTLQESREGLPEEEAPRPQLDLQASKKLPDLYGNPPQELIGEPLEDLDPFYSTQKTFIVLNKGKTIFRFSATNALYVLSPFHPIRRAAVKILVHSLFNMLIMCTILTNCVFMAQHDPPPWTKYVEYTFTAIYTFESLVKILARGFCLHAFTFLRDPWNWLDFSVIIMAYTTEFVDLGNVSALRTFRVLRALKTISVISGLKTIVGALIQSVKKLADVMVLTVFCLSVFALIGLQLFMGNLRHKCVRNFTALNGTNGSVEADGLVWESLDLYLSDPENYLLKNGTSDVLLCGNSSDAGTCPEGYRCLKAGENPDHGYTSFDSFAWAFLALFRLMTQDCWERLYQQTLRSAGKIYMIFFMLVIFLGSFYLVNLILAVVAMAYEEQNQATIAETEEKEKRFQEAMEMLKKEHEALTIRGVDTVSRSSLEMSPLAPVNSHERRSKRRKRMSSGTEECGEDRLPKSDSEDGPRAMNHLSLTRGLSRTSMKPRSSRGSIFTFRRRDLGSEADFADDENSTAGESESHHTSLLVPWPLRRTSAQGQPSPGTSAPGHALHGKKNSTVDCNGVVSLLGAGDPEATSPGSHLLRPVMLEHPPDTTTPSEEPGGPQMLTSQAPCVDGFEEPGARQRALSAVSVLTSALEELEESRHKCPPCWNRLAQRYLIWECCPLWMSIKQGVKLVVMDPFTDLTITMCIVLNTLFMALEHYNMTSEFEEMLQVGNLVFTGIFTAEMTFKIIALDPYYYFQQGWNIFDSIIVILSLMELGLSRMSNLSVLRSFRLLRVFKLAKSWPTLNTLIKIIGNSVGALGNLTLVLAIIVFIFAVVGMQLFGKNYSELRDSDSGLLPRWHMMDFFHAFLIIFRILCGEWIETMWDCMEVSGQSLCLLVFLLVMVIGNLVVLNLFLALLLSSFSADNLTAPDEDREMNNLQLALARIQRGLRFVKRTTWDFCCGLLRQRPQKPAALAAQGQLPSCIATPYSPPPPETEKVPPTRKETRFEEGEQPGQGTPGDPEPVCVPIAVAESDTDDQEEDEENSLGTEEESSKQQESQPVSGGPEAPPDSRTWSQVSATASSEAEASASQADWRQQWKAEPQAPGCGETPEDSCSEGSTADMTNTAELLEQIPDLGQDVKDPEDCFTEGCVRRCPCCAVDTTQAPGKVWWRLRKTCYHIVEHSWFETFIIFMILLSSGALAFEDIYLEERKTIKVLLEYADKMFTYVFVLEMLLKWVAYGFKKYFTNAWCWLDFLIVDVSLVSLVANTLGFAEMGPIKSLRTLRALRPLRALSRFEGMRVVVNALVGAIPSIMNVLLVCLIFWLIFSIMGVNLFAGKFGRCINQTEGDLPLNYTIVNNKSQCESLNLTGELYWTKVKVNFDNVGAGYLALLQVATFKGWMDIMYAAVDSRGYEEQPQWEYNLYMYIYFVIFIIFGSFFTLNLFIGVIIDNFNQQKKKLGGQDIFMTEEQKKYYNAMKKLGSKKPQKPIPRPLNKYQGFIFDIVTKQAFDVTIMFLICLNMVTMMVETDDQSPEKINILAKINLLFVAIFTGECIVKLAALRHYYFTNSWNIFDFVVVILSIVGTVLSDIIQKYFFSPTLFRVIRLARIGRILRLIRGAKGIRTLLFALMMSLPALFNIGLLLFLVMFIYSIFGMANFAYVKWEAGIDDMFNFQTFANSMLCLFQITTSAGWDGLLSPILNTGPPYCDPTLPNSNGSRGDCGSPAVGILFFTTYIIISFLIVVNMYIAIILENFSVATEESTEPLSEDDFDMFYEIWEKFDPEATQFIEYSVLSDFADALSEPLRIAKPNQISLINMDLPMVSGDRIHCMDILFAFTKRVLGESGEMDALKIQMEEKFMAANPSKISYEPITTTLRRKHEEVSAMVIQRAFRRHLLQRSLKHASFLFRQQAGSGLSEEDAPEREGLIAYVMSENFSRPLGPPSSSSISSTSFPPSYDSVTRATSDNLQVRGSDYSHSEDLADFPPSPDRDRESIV
P-glycoproteins, sequence (P08183 whole entry): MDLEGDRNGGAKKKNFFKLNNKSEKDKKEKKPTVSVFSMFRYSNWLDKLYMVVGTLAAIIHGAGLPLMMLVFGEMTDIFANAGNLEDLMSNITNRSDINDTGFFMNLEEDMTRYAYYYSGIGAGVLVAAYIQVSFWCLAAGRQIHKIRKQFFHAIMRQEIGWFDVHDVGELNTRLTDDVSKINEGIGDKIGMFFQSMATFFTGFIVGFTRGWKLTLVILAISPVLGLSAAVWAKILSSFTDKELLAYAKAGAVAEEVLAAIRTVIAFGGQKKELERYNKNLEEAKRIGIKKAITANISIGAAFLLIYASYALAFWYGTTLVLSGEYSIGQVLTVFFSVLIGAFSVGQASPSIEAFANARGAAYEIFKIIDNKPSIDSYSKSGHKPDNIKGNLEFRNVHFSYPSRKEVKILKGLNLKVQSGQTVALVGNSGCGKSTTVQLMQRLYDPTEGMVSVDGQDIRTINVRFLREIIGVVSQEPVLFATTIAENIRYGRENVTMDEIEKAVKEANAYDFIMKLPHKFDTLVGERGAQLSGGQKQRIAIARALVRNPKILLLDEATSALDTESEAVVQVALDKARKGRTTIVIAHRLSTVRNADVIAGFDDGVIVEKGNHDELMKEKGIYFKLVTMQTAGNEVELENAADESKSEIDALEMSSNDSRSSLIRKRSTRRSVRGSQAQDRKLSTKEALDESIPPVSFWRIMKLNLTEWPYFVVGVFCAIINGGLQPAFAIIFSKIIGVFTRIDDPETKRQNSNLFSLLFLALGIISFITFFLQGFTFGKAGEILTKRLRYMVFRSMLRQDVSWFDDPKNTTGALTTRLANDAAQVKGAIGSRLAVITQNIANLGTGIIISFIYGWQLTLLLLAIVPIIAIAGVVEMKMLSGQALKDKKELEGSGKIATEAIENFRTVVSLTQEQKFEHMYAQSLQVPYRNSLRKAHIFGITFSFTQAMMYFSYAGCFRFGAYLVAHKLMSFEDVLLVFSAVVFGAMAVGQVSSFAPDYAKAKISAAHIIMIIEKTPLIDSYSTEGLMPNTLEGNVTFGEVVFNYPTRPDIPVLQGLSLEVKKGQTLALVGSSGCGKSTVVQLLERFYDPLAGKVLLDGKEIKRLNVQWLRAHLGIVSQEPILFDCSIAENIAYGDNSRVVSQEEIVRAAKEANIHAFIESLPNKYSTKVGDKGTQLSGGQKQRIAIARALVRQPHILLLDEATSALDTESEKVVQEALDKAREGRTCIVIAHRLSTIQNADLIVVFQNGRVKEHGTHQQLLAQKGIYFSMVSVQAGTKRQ

On to `O=C1c2cc(-c3ccc(OC(F)(F)F)cc3)ccc2OCCN1Cc1ncccn1` [Compound 1, 4-(pyrimidin-2-ylmethyl)-7-(4-(trifluoromethoxy)phenyl)-3,4-dihydrobenzo[f][1,4]oxazepin-5(2H)-one], for which, in data set [1] (setting [7]), the Absorption result was “fast absorption”, the Clearance entry was “low clearance”, the Decline of concentration entry was “biphasic decline” and the Half-life result is “long half-life”. Also, in data set [1] (single oral dose, FIG. 4), the “PK profile in LQT3 patients compared with healthy volunteers” value is listed as “similar”. Further, in the data set on patients with LQT3 (10 mg, three patients with inherited LQT3), the “Efficacy (QTc shortening or T-wave morphology)” value is “preliminary efficacy”. Moreover, in the data set with patients with LQT3 (LQT3 patients), the “Dependence of QTc shortening on mutations or concomitant use of b-blockers” value is “independent”, the Tolerability entry was “well tolerated” and the “Change in QTc from baseline” value is reported as “changes in QTc from baseline”. In the data set on patients with LQT3 (setting [8]), the Tolerability entry is on record as “well tolerated; also recorded: well-tolerated” and the “Change in QTc from baseline” value was “Shortening of QTc was observed at all dose levels; also recorded: shortens QTc interval”. In addition, the “Left ventricular (LV) functions / cardiac function assessed by ECHO” value in the data set with patients with LQT3 (LQT3 patients, single and multiple dose cohorts, listed as Compound (I)) is “did not affect; also recorded: no effect”. In addition, the “Treatment of long QT syndrome in humans, specifically LQT3” value with patients with LQT3 (human, in vivo) is listed as “effective”. For the same compound, in the data set on patients with LQT3 (maintenance doses of 6 mg from Days 3-7), the “Persistence of QTc shortening” value is on record as “sustained”. In addition, in the data set with patients with LQT3 (multiple dose cohort, 40 mg on Day 2 compared to 20 mg on Day 1), the “Dose dependence of QTc shortening” value is recorded as “dose-dependent”. In addition, in the data set with patients with LQT3 (ten LQT-3 patients, single dose 10 mg, 20 mg, 30 mg or 60 mg), the QTc shortening is on record as 20-100 milliseconds. Also, the “Inhibition of P-glycoproteins” value on P-glycoproteins was “does not inhibit”. Besides, in data set [2], the “Inhibition of the cardiac late sodium current (INa)” value is “potent and selective inhibitors”. In data set [3], the “Prolonged action potential duration (APD)” value is “shortens”, the QT interval result was “shortens” and the “Tpeak to Tend (TpTe)” value is reported as “shortens”. In addition, the Beat-to-beat variability result in data set [4] (model of LQT3, FIG. 2) is reported as “reduction”. Further, the “Action potential duration (APD)” value in data set [4] (model of LQT-3, FIG. 1) is “shortening”. Further, the “Inhibition of cytochrome P450 (CYP) enzymes” value in [5] is listed as “does not inhibit”. For the same compound, the “Prolonged monophasic action potential (MAP)” value in the data set on rabbit isolated heart (60 nM E-4031, 100 and 300 nM Compound 1, paced at 1 Hz) is on record as “shortens”. Also, the “Torsades de pointes (TdP) ventricular tachyarrhythmia” value in the data set on rabbit isolated heart (induced by 60 nM E-4031, paced at 1 Hz) was “suppresses”. Further, the “Late sodium channel inhibition” value in data set [6] was “potent late sodium channel inhibitors”.

As to `O=C1c2cc(-c3ccc(C(F)(F)F)cc3)ccc2OCCN1Cc1ncccn1` [Compound 2, 4-(pyrimidin-2-ylmethyl)-7-(4-(trifluoromethyl)phenyl)-3,4-dihydrobenzo[f][1,4]oxazepin-5(2H)-one], the “Inhibition of the cardiac late sodium current (INa)” value in data set [2] was “potent and selective inhibitors”. Also, the “Late sodium channel inhibition” value in data set [6] was “potent late sodium channel inhibitors”.
